{"source": "paper PMC3172300", "about": "“Modulation of Catalytic Activity in Multi-Domain Protein Tyrosine Phosphatases” (PLoS ONE, 2011)", "key": {"[1]": {"tested_on": "D958C mutant of the D2 domain of PTP99A", "assay": "Phosphatase assay using pNPP, PTP99A D2 D958C mutant", "format": "biochemical, Drosophila melanogaster", "settings": "D958C point mutant", "experimental": "(§1) Phosphatase activity of the recombinant PTP domains was determined by using para-Nitrophenylphosphate (pNPP), a small molecule generic substrate, as well as phosphotyrosine containing peptides. The pNPP assay was performed as reported previously, with a modification in the buffer composition (25 mM Citrate, Glycine and HEPES (CGH), pH 6.5, 100 mM NaCl and 2 mM DTT). Phosphatase activity with the phosphotyrosine peptides was ascertained by the malachite green reaction as described for PTPs previously. Briefly, the reaction mixture comprised of 0.01 µM protein incubated with increasing concentrations of different peptides in 25 mM citrate buffer pH 6.0, 100 mM NaCl and 2 mM DTT for 15 min at 25°C. The reaction was stopped by the addition of the Biomol Green reagent (Enzo Life Sciences) and the colour developed after 20 min was quantified at 650 nm. For all the assays, kinetic constants for the steady state catalysis were obtained by fitting the reaction curves to the Michaelis-Menten equation using the nonlinear regression module of Sigma plot software (Systat Software, Inc.).\nSupplementary file pone.0024766.s005.tif: Figure S5 Characterization of the D958C mutant of the D2 domain of PTP99A. A: Size exclusion profile of wild-type and D958C mutant of the D2 domain of PTP99A. B: Circular Dichroism (CD) spectra of the wild type and D958C mutant. […]"}, "[2]": {"target": "T1, PTP99A D1D2 (Drosophila melanogaster, UniProt P35832)", "T1 sequence (P35832 450-1050)": "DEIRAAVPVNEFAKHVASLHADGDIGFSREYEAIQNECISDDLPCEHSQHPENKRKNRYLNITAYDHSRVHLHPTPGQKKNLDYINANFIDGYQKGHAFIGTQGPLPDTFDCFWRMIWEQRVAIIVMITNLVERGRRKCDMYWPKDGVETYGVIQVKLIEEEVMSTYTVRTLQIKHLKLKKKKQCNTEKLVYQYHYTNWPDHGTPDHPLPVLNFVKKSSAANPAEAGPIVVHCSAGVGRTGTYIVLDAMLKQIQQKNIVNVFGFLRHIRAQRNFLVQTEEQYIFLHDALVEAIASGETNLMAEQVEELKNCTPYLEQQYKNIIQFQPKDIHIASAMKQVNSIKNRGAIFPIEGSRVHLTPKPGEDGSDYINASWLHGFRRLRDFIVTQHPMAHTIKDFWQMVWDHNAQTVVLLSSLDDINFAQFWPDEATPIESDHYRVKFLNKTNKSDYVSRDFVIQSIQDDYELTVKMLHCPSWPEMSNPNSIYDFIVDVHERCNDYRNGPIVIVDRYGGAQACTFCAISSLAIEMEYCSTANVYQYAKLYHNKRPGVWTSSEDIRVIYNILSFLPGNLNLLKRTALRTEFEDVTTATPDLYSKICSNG", "assay": "Phosphatase assay using pNPP, PTP99A D1D2", "format": "biochemical", "set-up": "PTP99A 450-1050; His tag (pET-15b or pET-22b); made in house; host or cells: E. coli BL21(DE3)", "settings": "CGH buffer pH 6.5, 100 mM NaCl, 2 mM DTT", "experimental": "as §1\nThe tandem PTP domains of PTP99A (PTP99A D1D2) and DLAR (DLAR D1D2) , the individual PTP domains (D1 and D2) as well as the active site mutants were expressed in E. coli and were purified using the protocols described earlier (Figure 1a, Figure S1a, b & c). The biochemical characterization and catalytic activity measurements were performed using pNPP as a substrate. […] Thus the D2 domain appears to have a regulatory role in both RPTPs- decreasing the catalytic activity in the case of DLAR while increasing the catalytic activity in the case of PTP99A (Figure 1b)."}}, "note": "Values joined by “and” are separate entries in the source; they are usually repeats but may differ in a detail not shown here. Identical values can stand only once."}
{"smiles": "O=[N+]([O-])c1ccc(OP(=O)(O)O)cc1", "note": "[pNPP, para-Nitrophenylphosphate]", "values": [{"measurement": "phosphatase activity", "setting": "[1]", "value": "catalytically inactive"}, {"measurement": "Kcat", "setting": "[2]", "value": "33.80 ± 0.59", "unit": "s⁻¹"}, {"measurement": "Kcat/Km", "setting": "[2]", "value": "14.92 ± 0.98 x 10^3 sec^-1M^-1"}, {"measurement": "Vmax", "setting": "[2]; Michaelis-Menten fit", "value": "24.89 µmol/min/mg and 24.89 ± 0.52 µmol/min/mg"}]}
